Measurements: patent US20090305338A1, “Plant cell lines established from the medicinal plant veratrum californicum” (priority 2006, published 2009)

Columns and labels:
[1] = test system: Veratrum californicum embryos; test: Embryogenic callus induction from mature embryos (% of embryogenesis); assay type: cell-based
Method: (§1) Seeds of Veratrum californicum Durand were peeled, rinsed with 94% ethanol and surface sterilized with 1% (v/v) sodium hypochlorite supplemented with a few drops of Tween20 for 10 minutes, and finally rinsed three times with sterile water. Seeds were allowed to germinate for 2 days at 22° C. in the dark on moist filter paper. Embryos were excised and cultured on MS medium (11) solidified with gelrite (3% w/v) and supplemented with 1 mg/l kinetin and 1 mg/l NAA in the dark at 22° C. Produced calli were subcultured to fresh plates in two to three weeks intervals. After four months of culture calli were transferred to L2-medium (12) solidified with gelrite (3% w/v) and supplemented with 2.5 mg/l 2,4-D and were subsequentially subcultured to fresh plates at one month intervals. Embryogenic callus cultures from isolated V. californicum embryos were induced by the following media: Basal media MS (11), R2M (13), L2 (12), modified MS medium (mMS, consisting of MS basic salts and vitamins, 146 mg/l glutamine, 200 mg/l casein hydrolysate) and AA (14) supplemented with different hormones (picloram, NAA, 2,4-D, dicamba) at three levels (2, 4 and 7 mg/l) all solidified with gelrite (3% w/v). The cultures were kept in the dark, at 25° C. and embryogenic calli were subcultured at one month intervals.
Frequencies of embryos producing embryogenic calli and frequencies of regenerated green and albino plants were recorded. Oxidative browning percentages of embryos were calculated. Completely randomized designs (CRD) were used in the experiments. Each Petri-dish with 20 embryos was considered an experimental unit and each treatment contained five replicates. Data analyses with two treatment levels were carried out by t-test, and with more than two treatment levels by the ANOVA procedure. Multi-range comparisons were performed by the LSD test.

suspension line B = test: Growth optimization of the suspension cell line B; assay type: cell-based, Veratrum californicum; conditions: AA medium, 4 mg/l
Method: Growth of suspension line B on L2-medium with 2,4-D (2.5 mg/l) was further optimized. About 3 g (fw) of cells were transferred to an Erlenmeyer flask containing 50 ml liquid AA medium (with 2,4-D and NAA at levels of 2, 4 and 7 mg/l or without hormones), and incubated in the light (light intensity about 30-40 […] Osram cool white/Osram fluora, 1:1 on watt basis) on a rotary shaker (130 rpm) at 25° C. The volume of the liquid medium was added up to 100 ml after the second subculture. The suspensions were sub-cultured at three weeks intervals by replacing about half of the old culture with an equal volume of fresh medium.

[2] = test system: Veratrum californicum embryos; test: Embryogenic callus induction from mature embryos (% of embryogenesis); assay type: cell-based; conditions: medium 502; data from 5 replicates
[3] = test system: suspension lines A, B and C; test: Cryopreservation of the cell suspension lines A, B and C; assay type: cell-based, Veratrum californicum; conditions: 5% (v/v), after osmotic dehydration
Method: The suspension lines A, B and C were cryopreserved by using a Kryo10 device (Planer Biomed). The suspensions were subcultured 4 to 5 days prior to the start of the cryopreservation experiment. A dehydration procedure as follows was applied: I) Sugar alcohol concentration of the suspension was adjusted to 0.2 M by adding five times small aliquots of 4 M sorbitol during a period of 30 minutes. After sorbitol additions, the suspensions were incubated under normal growth conditions for 24 hours (in the dark, 25° C., on a rotary shaker (90 rpm)). II) Sugar alcohol concentration was adjusted to 0.4 M by 4 M sorbitol and incubations were carried out as in step I). The dehydrated suspensions were transferred to ice and DMSO was added to reach 5% (v/v) concentration. Cell:medium ratio was adjusted to 1:2 and suspensions were packed into ampulles. Protectant-treated suspensions were kept on ice for a period of 100 minutes. A freezing protocol as follows was applied: I) A rate of 10° C./min to reach 0° C. was followed by II) incubation at 0° C. for 20 minutes. The freezing was finalized by using III) a rate of 1° C./min to reach −40° C. and then IV) samples were immersed in liquid nitrogen. Thawing of cryopreserved samples was carried out by immersing the suspension ampulles straight from liquid nitrogen to a 40° C. water bath for 2 minutes. […] Cell division and growth of the cultures were monitored.

[4] = test system: Veratrum californicum embryos; test: Phenolic exudation / oxidative browning during embryo culture; assay type: cell-based; conditions: mMS medium containing picloram
Method: as §1, with “The cultures were kept in the dark, at 25° C. and embryogenic calli were subcultured at one month intervals.” left out
Frequencies of embryos producing embryogenic calli and frequencies of regenerated green and albino plants were recorded. Oxidative browning percentages of embryos were calculated. […]

[5] = test system: Veratrum californicum plant suspension cell lines; test: Elicitation of steroid alkaloid production in plant suspension cell lines; assay type: cell-based
Method: 100 μl 0.5% SDS solution and 50 μl 25% NH4OH was added to 100 mg FW frozen cell powder. After mixing 1 ml toluene was added and the solution was extracted for 10 min in an ultrasonic bath. Following centrifugation the organic layer was collected and the sample residue was twice re-extracted with another 1 ml toluene. The organic phases were combined and the solvent was evaporated to dryness. The residue was then quantitatively transferred to a GC vial and re-dissolved in 80 μl CH2Cl2. An aliquot was directly injected into the GC.
GC separation was performed using an Agilent 6890 system and was monitored with an Agilent 5973 Network MS Quadropole. The selected ion mode function was applied to record the characteristic molecular ions (cyclopamine: 124, 396; jervine: 110, 124). Within a set of samples the response values for the specific ions were used to compare relative levels of alkaloids. A mixture of commercially available reference compounds (cyclopamine and jervine) was routinely analyzed for comparison of retention times and fragmentation.

sheep = conditions: ewes consuming Veratrum during early pregnancy; cited from earlier work
[6] = test system: Sonic hedgehog signal transduction; conditions: cited from earlier work
[7] = growth regulator 2 mg/l, average over mMS, R2M, AA
[8] = growth regulator 2 mg/l, medium AA
[9] = growth regulator 2 mg/l, medium R2M
[10] = growth regulator 2 mg/l, medium mMS
[11] = growth regulator 4 mg/l, average over mMS, R2M, AA
[12] = growth regulator 4 mg/l, medium AA
[13] = growth regulator 4 mg/l, medium R2M
[14] = growth regulator 4 mg/l, medium mMS
[15] = growth regulator 7 mg/l, average over mMS, R2M, AA
[16] = growth regulator 7 mg/l, medium AA
[17] = growth regulator 7 mg/l, medium R2M
[18] = growth regulator 7 mg/l, medium mMS
[19] = medium AA, data from 5 replicates
[20] = medium MS, data from 5 replicates
[21] = medium R2M, data from 5 replicates
[22] = medium mMS, data from 5 replicates

## O=C(O)Cc1cccc2ccccc12 [NAA, 1-naphthaleneacetic acid]
[1]; average over the five media
  % of embryogenesis, Average: 67.70a %
[1]; [7]
  % of embryogenesis, Average: 59.35b %
[1]; [8]
  % of embryogenesis: 48.95%
[1]; [9]
  % of embryogenesis: 63.75%
[1]; [10]
  % of embryogenesis: 65.35%
[1]; [11]
  % of embryogenesis, Average: 70.74a %
[1]; [12]
  % of embryogenesis: 64.21%
[1]; [13]
  % of embryogenesis: 74.32%
[1]; [14]
  % of embryogenesis: 73.67%
[1]; [15]
  % of embryogenesis, Average: 72.15a %
[1]; [16]
  % of embryogenesis: 68.06%
[1]; [17]
  % of embryogenesis: 73.01%
[1]; [18]
  % of embryogenesis: 75.37%
[1]; [19]
  % of embryogenesis: 62.04%
[1]; [20]
  % of embryogenesis: 62.62%
[1]; [21]
  % of embryogenesis: 73.95%
[1]; [22]
  % of embryogenesis: 74.93%
Suspension line B
  growth of the suspension line B: improved the growth
[2]
  % of embryogenesis: 64.98%

## C[S+](C)[O-] [DMSO]
[3]
  cryoprotectant effect: sufficient as a cryoprotectant

## Nc1c(Cl)c(Cl)nc(C(=O)O)c1Cl [Picloram, picloram]
[1]; average over the five media
  % of embryogenesis, Average: 70.82a %
[1]; [7]
  % of embryogenesis, Average: 63.24B %
[1]; [8]
  % of embryogenesis: 51.43%
[1]; [9]
  % of embryogenesis: 68.53%
[1]; [10]
  % of embryogenesis: 69.76%
[1]; [11]
  % of embryogenesis, Average: 72.96A %
[1]; [12]
  % of embryogenesis: 62.59%
[1]; [13]
  % of embryogenesis: 75.73%
[1]; [14]
  % of embryogenesis: 80.57%
[1]; [15]
  % of embryogenesis, Average: 72.50A %
[1]; [16]
  % of embryogenesis: 59.97%
[1]; [17]
  % of embryogenesis: 76.07%
[1]; [18]
  % of embryogenesis: 81.46%
[1]; [19]
  % of embryogenesis: 59.75%
[1]; [20]
  % of embryogenesis: 69.32%
[1]; [21]
  % of embryogenesis: 75.40%
[1]; [22]
  % of embryogenesis: 81.33%
[4]
  percentage of embryos producing phenolic exudates: 18.9%
[2]
  % of embryogenesis: 68.32%

## COc1c(Cl)ccc(Cl)c1C(=O)O [Dicamba, dicamba]
[1]; average over the five media
  % of embryogenesis, Average: 55.44bc %
[1]; [19]
  % of embryogenesis: 51.24%
[1]; [20]
  % of embryogenesis: 50.90%
[1]; [21]
  % of embryogenesis: 58.67%
[1]; [22]
  % of embryogenesis: 60.79%
[2]
  % of embryogenesis: 55.61%

## CC/C=C\CC1C(=O)CCC1CC(=O)OC (centres unmarked) [methyl-jasmonate, methyl jasmonate]
[5]
  production of cyclopamine and jervine upon elicitation: showed the production of cyclopamine and jervine

## O=C(O)COc1ccc(Cl)cc1Cl [2,4-D]
[1]; average over the five media
  % of embryogenesis, Average: 52.33c %
[1]; [19]
  % of embryogenesis: 43.43%
[1]; [20]
  % of embryogenesis: 50.52%
[1]; [21]
  % of embryogenesis: 58.85%
[1]; [22]
  % of embryogenesis: 55.32%
Suspension line B
  growth of the suspension line B: improved the growth
[2]
  % of embryogenesis: 53.41%

## CC1=C2C(=O)[C@H]3[C@@H](CC=C4C[C@@H](O)CC[C@@]43C)[C@@H]2CC[C@]12O[C@@H]1C[C@H](C)CN[C@H]1[C@H]2C [jervine]
sheep
  teratogenicity: responsible teratogens

## CC1=C2C[C@H]3[C@@H](CC=C4C[C@@H](O)CC[C@@]43C)[C@@H]2CC[C@]12O[C@@H]1C[C@H](C)CN[C@H]1[C@H]2C [cyclopamine]
[6]
  effect on Sonic hedgehog signal transduction: selectively blocks Sonic hedgehog signal transduction
sheep
  teratogenicity: responsible teratogens
